Laboratory results reported in US4971969A, “Pharmaceutical composition containing 1-(mono- or bis(trifluoromethyl)-2-pyridinyl)piperazines” (priority 1988, dated 1990).
Read-outs that look alike come from different tables or passages of the source.

Tests used:
[1] = biological target: T1, 5HT1A receptors (Rattus norvegicus, UniProt P19327); assay: Binding test: displacement of [^3 H]-8-OH-DPAT from membranes of the rat hippocampus (5HT1A)
T1 construct: membranes of the rat hippocampus; from tissue; host or cells: rat hippocampus membranes
T1 sequence (P19327 1-422): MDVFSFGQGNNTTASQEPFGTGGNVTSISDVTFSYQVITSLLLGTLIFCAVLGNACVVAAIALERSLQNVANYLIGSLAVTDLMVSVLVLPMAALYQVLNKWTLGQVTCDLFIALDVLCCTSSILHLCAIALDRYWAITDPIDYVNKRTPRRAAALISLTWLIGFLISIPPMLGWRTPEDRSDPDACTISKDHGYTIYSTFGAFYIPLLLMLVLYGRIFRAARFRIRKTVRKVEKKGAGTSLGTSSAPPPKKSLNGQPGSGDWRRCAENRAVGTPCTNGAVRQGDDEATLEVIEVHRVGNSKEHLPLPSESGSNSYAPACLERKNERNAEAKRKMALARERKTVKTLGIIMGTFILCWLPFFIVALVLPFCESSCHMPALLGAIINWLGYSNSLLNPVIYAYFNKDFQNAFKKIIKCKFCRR
Method: (§1) This test is carried out according to the protocol of PEROUTKA, S.J. ["Selective labelling of 5-HT1A and 5HT1B binding sites in bovine brain" BRAIN RESEARCH 344, p. 167-171 (1985)]. In this test, the affinity for 5HT1A receptors is determined by the Capacity of the compounds to displace [^3 H]-8-OH-DPAT from the membranes of the rat hippocampus; similarly, the affinity for 5HT1B receptors is determined by the capacity of the compounds to displace [^3 H]-5HT from the membranes of the rat striatum.
(§2) The results recorded in Table II below show the pKi values calculated according to the abovementioned protocol.

[2] = system: 5HT1B; assay: Penile erection test (5HT1B agonist potential); assay type: in vivo; settings: rats; for minimal effective dose: Rattus norvegicus, sc, administered subcutaneously, read-out: ERECTION OF THE PENIS, minimum dose which leads to an erection of the penis, subcutaneous; for ERECTION OF THE PENIS, activity when administered orally: administered orally (PO)
Text: This test, carried out according to the protocol of BERENDSEN H.H.G. and BROEKKAMP C.L.E. ["Drug induced penile erections in rats: indication of serotonin 1B receptor mediation--EUROPEAN J. PHARMACOL. 135, 279-287 (1987")]enables the 5HT1B agonist potentials of the various compounds to be assessed.
The results recorded in Table II below show the minimum dose in mg.kg^-1 administered subcutaneously which leads to an erection of the penis in rats, as well as the activity when administered orally.

[3] = biological target: T2, 5HT1B receptors (Rattus norvegicus, UniProt P28564); assay: Binding test: displacement of [^3 H]-5HT from membranes of the rat striatum (5HT1B)
T2 construct: membranes of the rat striatum; from tissue; host or cells: rat striatum membranes
Method: as §1, §2

[4] = rat hippocampus membranes, [^3 H]-8-OH-DPAT, read-out: BINDING pKi 5HT1A (converted)
[5] = rat striatum membranes, [^3 H]-5HT, read-out: BINDING pKi 5HT1B (converted)

T2 sequence (P28564 whole entry): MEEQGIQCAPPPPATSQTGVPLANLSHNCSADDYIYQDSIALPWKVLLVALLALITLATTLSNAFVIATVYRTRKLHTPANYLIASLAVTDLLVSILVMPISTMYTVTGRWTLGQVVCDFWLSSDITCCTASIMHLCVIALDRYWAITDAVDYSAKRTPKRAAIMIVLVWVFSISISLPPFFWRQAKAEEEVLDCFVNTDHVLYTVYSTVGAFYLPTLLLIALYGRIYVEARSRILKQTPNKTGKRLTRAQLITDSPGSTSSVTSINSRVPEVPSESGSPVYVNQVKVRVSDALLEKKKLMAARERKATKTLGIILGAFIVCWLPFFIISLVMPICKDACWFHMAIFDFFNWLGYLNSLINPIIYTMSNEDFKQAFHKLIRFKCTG

SMILES | Ki [1, 4] | minimal effective dose [2] | ERECTION OF THE PENIS, activity when administered orally [2] | Ki [3, 5] | Ki [1] | Ki [3]
FC(F)(F)c1ccnc(N2CCNCC2)c1 [Compound 2, 1-(4-trifluoromethyl-2-pyridinyl)piperazine] | 2510 nM | 1 mg/kg | 2.2 mg/kg | 126 nM | – | –
FC(F)(F)c1cnc(N2CCNCC2)cc1C(F)(F)F [Compound 4, 1-[4,5-bis(trifluoromethyl)-2-pyridinyl]piperazine] | 79400 nM | 10 mg/kg | 2.2 mg/kg | 398 nM | – | –
FC(F)(F)c1ccc(N2CCNCC2)nc1 [Compound 1, 1-(5-trifluoromethyl-2-pyridinyl)piperazine] | > 10000 nM | 1 mg/kg | > 46 mg/kg | 501 nM | – | –
FC(F)(F)c1ccc(N2CCNCC2)nc1Cl [Compound 3] | – | 0.46 mg/kg | 4.6 mg/kg | – | 2510 nM | 100 nM
FC(F)(F)c1cnc(N2CCNCC2)c(Cl)c1 [Compound 5, 1-(3-chloro-5-trifluoromethyl-2-pyridinyl)piperazine] | 3980 nM | 4.6 mg/kg | 10 mg/kg | 501 nM | – | –
